In data set [1] the target is T1, cAMP and cAMP-inhibited cGMP 3',5'-cyclic phosphodiesterase 10A (Homo sapiens, UniProt Q9Y233). The data set can be described thus: Inhibition of PDE10A (unknown origin) at 10 uM preincubated for 20 mins followed by substrate addition and measured after 1 hr by PEDlight AMP detection reagent based luminescence assay relative to control. The settings on record: time 80.0 min.

Data set [2] addresses T2, 5-hydroxytryptamine receptor 1A (Homo sapiens, UniProt P08908).
T2 sequence (P08908 whole entry): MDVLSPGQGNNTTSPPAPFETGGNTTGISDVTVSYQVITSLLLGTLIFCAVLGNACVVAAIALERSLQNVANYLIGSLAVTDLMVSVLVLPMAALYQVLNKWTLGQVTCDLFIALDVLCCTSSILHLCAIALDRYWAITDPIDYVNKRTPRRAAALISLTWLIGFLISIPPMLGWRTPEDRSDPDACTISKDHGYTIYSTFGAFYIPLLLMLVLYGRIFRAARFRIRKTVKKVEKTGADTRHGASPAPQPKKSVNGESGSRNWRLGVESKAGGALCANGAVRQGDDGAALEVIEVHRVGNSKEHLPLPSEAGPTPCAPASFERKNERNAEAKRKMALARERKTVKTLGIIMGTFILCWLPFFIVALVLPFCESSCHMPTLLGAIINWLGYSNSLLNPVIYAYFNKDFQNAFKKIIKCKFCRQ
Nature of the data set: Displacement of [3H]-[…] from human 5-HT1A receptor expressed in CHO-K1 cells membrane by scintillation counter analysis. In kind it is cell membranes.

The target in data set [3] is 5-hydroxytryptamine receptor 7 (Homo sapiens, UniProt P34969). Nature of the data set: Displacement of [3H]-5-CT from human 5-HT7 receptor expressed in CHO-K1 cells membrane by scintillation counter analysis. In kind it is cell membranes. Background: Loss of bound radioactivity is the signal in a displacement assay; it reports binding, not function.
Data set [4] addresses T1, cAMP and cAMP-inhibited cGMP 3',5'-cyclic phosphodiesterase 10A. Nature of the data set: Inhibition of PDE10A (unknown origin) preincubated for 20 mins followed by substrate addition and measured after 1 hr by PEDlight AMP detection reagent based luminescence assay.
Data set [5] has as its system Rattus norvegicus. The data set can be described thus: Pro-cognitive activity in MK-801-induced memory impaired Wistar rat assessed as recognition of novel location by measuring discrimination index at 1 mg/kg, ip preincubated for 30 mins followed by MK-801 addition for 30 mins prior to T1 phase by novel object location test. Format: functional, organism-based. The settings on record: time 60.0 min.

Data set [6] concerns Mus musculus. Nature of the data set: Antidepressant activity in Swiss albino mouse assessed as reduction in immobility time at 5 mg/kg, ip measured for last 4 mins of 6 mins test by forced swim test. In kind it is functional, organism-based.
Data set [7] relates to Mus musculus. The data set can be described thus: Anxiolytic-like activity in Swiss albino mouse at 2.5 mg/kg, ip by four plate test. In kind it is functional, organism-based.
Data set [8] concerns Rattus norvegicus. Nature of the data set: Pro-cognitive activity in MK-801-induced memory impaired Wistar rat assessed as recognition of novel location by measuring discrimination index at 0.3 to 3 mg/kg, ip preincubated for 30 mins followed by MK-801 addition for 30 mins prior to T1 phase by novel object location test. Format: functional, organism-based. The settings on record: dose 0.3-3 mg/kg, time 60.0 min.

Data set [9] relates to Mus musculus. Nature of the data set: Anxiolytic-like activity in Swiss albino mouse at 1.25 to 2.5 mg/kg, ip by four plate test. Format: functional, organism-based. The settings on record: dose 1.25-2.5 mg/kg.
For data set [10], the system named is Mus musculus. Nature of the data set: Antidepressant activity in Swiss albino mouse assessed as reduction in immobility time at 2.5 mg/kg, ip measured for last 4 mins of 6 mins test by forced swim test. Set-up: scale not given: the % may be the effect or the level left. Format: functional. The settings on record: 0.1 h.
Data set [11] is described as follows: Permeability of the compound across apical to basolateral side in human Caco-2 cells at pH 7.4. In kind it is ADME, cell-based. The settings on record: Caco-2, pH 7.4, read-out: permeability. On the technique in general: Caco-2 cells form a polarised layer with tight junctions and transporters.
Data set [12] can be described thus: Permeability of the compound across apical to basolateral side in human Caco-2 cells at pH 6.5. The settings on record: Caco-2, pH 6.5, read-out: permeability. Format: ADME, cell-based.
A short description of data set [13]: Aqueous solubility of compound in PBS buffer at pH 7.4 by UV absorbance based analysis. Format: physicochemical.

Values after ≈ are worked out from the molar mass of the structure shown. Active and inactive are the calls of the source. The calls are words filed in the database; no cut-off is given here.

Turning to `COc1cc2ncnc(N3CCC(CN4CCN(c5ccccn5)CC4)C3)c2cc1OC` (stereo not drawn), in data set [1], the inhibition stood at 11%. The inhibition constant Ki in data set [2] was 0.00813 µM; in data set [3] it was 0.282 µM.

On to `O=c1[nH]c2cccc(N3CCN(Cc4cnc5ccccc5n4)CC3)c2[nH]1`, for which, in data set [1], the inhibition is 9%. Besides, the figures for the Ki in [2] and in data set [3] were 0.0832 µM and above 1 µM, respectively.

Turning to `O=c1[nH]c2cccc(N3CCN(Cc4ccc5ccccc5n4)CC3)c2[nH]1`, the inhibition in [1] is 17%. Moreover, the Ki in data set [2] is 0.245 µM; in data set [3], 0.417 µM.

For `COc1cc2ncnc(N3CCN(Cc4cnc5ccccc5n4)CC3)c2cc1OC`, the inhibition in [1] was 29%. In data set [4], this compound showed an IC50 of 170 µM. In addition, the Ki in data set [2] and in [3] was above 1 µM each time.

Take `c1ccc2nc(CN3CCN(c4cccc5cn[nH]c45)CC3)ccc2c1`: the Ki in [2] and in [3] was above 1 µM in each case.

On to `COc1cc2ncnc(N3CCC(CN4CCN(c5ccccc5)CC4)C3)c2cc1OC` (stereo not drawn), for which the result in data set [5], in [6] and in data set [7] was Active. This compound also showed an inhibition in [1] of 3%. In addition, the inhibitory constant (Ki) in data set [2] was 0.0324 µM; in data set [3], 0.251 µM.

The compound `COc1cc2ncnc(N3CCC(CN4CCN(c5cccc(Cl)c5)CC4)C3)c2cc1OC` (stereo not drawn) returned an inhibition in data set [1] of 4%. Further, the results for the inhibitory constant (Ki) in data set [2] and in [3] were 0.0302 µM and 0.372 µM, respectively.

Consider `c1cc(N2CCN(c3cccc4cn[nH]c34)CC2)c2ncncc2c1`, for which, in data set [1], the inhibition was found to be 3%. Also, the Ki in data set [2] and in [3] was above 1 µM each time.

The compound `O=c1[nH]c2cccc(N3CCN(Cc4nc5ccccc5[nH]4)CC3)c2[nH]1` had an inhibition in data set [1] of 23%. In data set [4], this compound gave a half-maximal inhibitory concentration (IC50) of 4.07 µM. For the same compound, the inhibitory constant (Ki) in data set [2] and in data set [3] was above 1 µM each time.

Take `COc1cc2ncnc(N3CC[C@@H](Oc4cnc5ccccc5n4)C3)c2cc1OC`: the outcome in [8] and in data set [9] was Active. For the same compound, the Activity in data set [10] turned out to be 30%.

On to `COc1cc2ncnc(N3CCC(CN4CCN(c5ccccc5O)CC4)C3)c2cc1OC` (stereo not drawn), for which the IC50 in data set [4] is 6.03 µM. In data set [3], this compound gave an inhibition constant Ki of 0.661 µM.

In the case of `c1cc(N2CCN(Cc3cnc4ccccc4n3)CC2)c2[nH]ncc2c1`, the Ki in data set [2] is 0.0871 µM; in data set [3] it was above 1 µM.

With `CNC(=C[N+](=O)[O-])NCCSCc1ccc(CN(C)C)o1` [RANITIDINE], the results for the Papp A→B in [11] and in [12] were 9 nm/s and 3 nm/s, respectively.

The compound `COc1cc2ncnc(N3CCN(Cc4ccc5ccccc5n4)CC3)c2cc1OC` showed an inhibition in data set [1] of 8%. For the same compound, the Ki in [2] and in data set [3] was above 1 µM each time.

Compound `COc1cc2ncnc(N3CCC(CN4CCN(c5ncccn5)CC4)C3)c2cc1OC` (stereo not drawn) came in with an inhibition in [1] of 11%. Moreover, the values for the Ki in data set [2] and in [3] were 0.251 µM and above 1 µM, respectively.

For the compound `CSc1ccc2c(c1)CC(N1CCN(C)CC1)c1ccccc1S2` (stereo not drawn), affinity in data set [3] was put at a Ki of 0.00112 µM.

As to `COc1cc2ncnc(N3CCC(CN4CCN(c5ccc(O)cc5)CC4)C3)c2cc1OC` (stereo not drawn), the inhibition in data set [1] was found to be 18%. Besides, the inhibitory constant (Ki) in [2] was 0.468 µM; in [3], above 1 µM.

`COc1cc2ncnc(N3CCC(CN4CCN(c5ccc(Cl)c(Cl)c5)CC4)C3)c2cc1OC` (stereo not drawn) returned an inhibition in data set [1] of 2%. The values for the Ki in data set [2] and in data set [3] were 0.245 µM and 0.355 µM, respectively.

Compound `COc1cc2ncnc(N3CCC(CN4CCN(c5cccc(Cl)c5Cl)CC4)C3)c2cc1OC` (stereo not drawn) yielded an inhibition in data set [1] of 6%. In addition, the results for the Ki in data set [2] and in data set [3] were 0.0107 µM and 0.347 µM, respectively.

In the case of `COc1cc2ncnc(N3CCC(CN4CCc5ccccc5C4)C3)c2cc1OC` (stereo not drawn), in [1], the inhibition amounted to 40%. In data set [4], this compound showed an IC50 of 105 µM. In addition, the figures for the Ki in data set [2] and in [3] were above 1 µM and 0.603 µM, respectively.

As to `COc1cc2ncnc(N3CCC(CN4CCN(c5ccccc5OC)CC4)C3)c2cc1OC` (stereo not drawn), in data set [1], the inhibition came to 16%. The Ki was 0.00162 µM in [2] and 0.0562 µM in data set [3].

As for `COc1cc2ncnc(N3CCC(CN4CCN(c5cccc(C(F)(F)F)c5)CC4)C3)c2cc1OC` (stereo not drawn), in data set [1], the inhibition was 3%. Further, the outcome in data set [7] was Active. Also, the Ki in [2] was 0.0209 µM; in [3] it was 0.229 µM.

`COCCc1ccc(OCC(O)CNC(C)C)cc1` (stereo not drawn) [METOPROLOL] came in with a solubility in data set [13] of 200 µM (≈ 53.5 µg/mL).

Consider `c1cc(N2CCN(Cc3nc4ccccc4[nH]3)CC2)c2[nH]ncc2c1`, for which the inhibitory constant (Ki) in data set [2] and in data set [3] was above 1 µM each time.

In turn, `COc1cc2ncnc(N3CCN(Cc4nc5ccccc5[nH]4)CC3)c2cc1OC` displayed an inhibition in data set [1] of 3%. Moreover, the inhibition constant Ki in [2] and in data set [3] was above 1 µM in each case.

As a reminder, the inhibition is the share of the control response that was lost under treatment. As a reminder, the Ki is a measure of affinity in units of concentration, obtained from inhibition or displacement. In general, IC50 refers to the concentration that gives 50% inhibition. One may read the solubility as how much of the substance goes into solution per volume.

These data come from ChEMBL document CHEMBL5143617 (Eur J Med Chem, 2022).
